Values joined by “and” are separate entries in the source; they are usually repeats but may differ in a detail not shown here. Identical values can stand only once. Inconclusive results and toxic doses are left out. No stated cut-off is given here; in the data, active means T/C of 150% or more; inactive means T/C below 125%.
Tested on: L1210 leukemia ip in BDF1 mice, survival T/C
Experiment: NCI In Vivo Anticancer Drug Screen. Data for tumor model L1210 Leukemia (intraperitoneal) in B6D2F1 (BDF1) mice
Settings: endpoint: mean survival time, higher = longer survival
Procedure, shortened: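 In this screen, tumor-bearing mice given compound are compared to those given vehicle, and their survival values are reported as a treated-to-control quotient.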

[1] = dose: 50.0 mg/kg/injection, schedule: Q01DX001 (ip), vehicle: saline
[2] = dose: 100.0 mg/kg/injection, schedule: Q01DX001 (ip), vehicle: saline
[3] = dose: 200.0 mg/kg/injection, schedule: Q01DX001 (ip), vehicle: saline
[4] = dose: 400.0 mg/kg/injection, schedule: Q01DX001 (ip), vehicle: saline
[5] = dose: 100.0 mg/kg/injection, schedule: Q04DX003 (ip), vehicle: Klucel (hydroxypropylcellulose) (HPC)
[6] = dose: 200.0 mg/kg/injection, schedule: Q04DX003 (ip), vehicle: Klucel (hydroxypropylcellulose) (HPC)
[7] = dose: 400.0 mg/kg/injection, schedule: Q04DX003 (ip), vehicle: Klucel (hydroxypropylcellulose) (HPC)
[8] = dose: 100.0 mg/kg/injection, schedule: Q01DX001 (ip), vehicle: carboxymethylcellulose (CMC)
[9] = dose: 200.0 mg/kg/injection, schedule: Q01DX001 (ip), vehicle: carboxymethylcellulose (CMC)
[10] = dose: 400.0 mg/kg/injection, schedule: Q01DX001 (ip), vehicle: carboxymethylcellulose (CMC)
[11] = dose: 100.0 mg/kg/injection, schedule: Q01DX009 (ip), vehicle: saline
[12] = dose: 200.0 mg/kg/injection, schedule: Q01DX009 (ip), vehicle: saline
[13] = dose: 100.0 mg/kg/injection, schedule: Q01DX009 (ip), vehicle: Klucel (hydroxypropylcellulose) (HPC)
[14] = dose: 200.0 mg/kg/injection, schedule: Q01DX009 (ip), vehicle: Klucel (hydroxypropylcellulose) (HPC)
[15] = dose: 400.0 mg/kg/injection, schedule: Q01DX009 (ip), vehicle: Klucel (hydroxypropylcellulose) (HPC)
[16] = dose: 100.0 mg/kg/injection, schedule: Q04DX002 (ip), vehicle: saline with Tween-80
[17] = dose: 200.0 mg/kg/injection, schedule: Q04DX002 (ip), vehicle: saline with Tween-80
[18] = dose: 400.0 mg/kg/injection, schedule: Q04DX002 (ip), vehicle: saline with Tween-80
[19] = dose: 100.0 mg/kg/injection, schedule: Q04DX003 (ip), vehicle: saline with Tween-80
[20] = dose: 200.0 mg/kg/injection, schedule: Q04DX003 (ip), vehicle: saline with Tween-80
[21] = dose: 400.0 mg/kg/injection, schedule: Q04DX003 (ip), vehicle: saline with Tween-80
[22] = dose: 50.0 mg/kg/injection, schedule: Q01DX009 (ip), vehicle: saline with Tween-80
[23] = dose: 100.0 mg/kg/injection, schedule: Q01DX009 (ip), vehicle: saline with Tween-80
[24] = dose: 200.0 mg/kg/injection, schedule: Q01DX009 (ip), vehicle: saline with Tween-80

Measured: T/C

O=Cc1c2ccccc2cc2ccccc12
inactive: dose: 9.5 mg/kg/injection, schedule: Q01DX015 (ip), vehicle: saline 96 % of control | dose: 9.5 mg/kg/injection, schedule: Q## X015 (ip), vehicle: saline 94 % of control | dose: 9.7 mg/kg/injection, schedule: Q01DX015 (ip), vehicle: other 97 % of control | dose: 16.2 mg/kg/injection, schedule: Q01DX015 (ip), vehicle: other 107 % of control | dose: 16.2 mg/kg/injection, schedule: Q## X015 (ip), vehicle: saline 94 % of control | dose: 27.0 mg/kg/injection, schedule: Q01DX015 (ip), vehicle: other 104 % of control | dose: 27.0 mg/kg/injection, schedule: Q## X015 (ip), vehicle: saline 96 % of control | dose: 45.0 mg/kg/injection, schedule: Q01DX015 (ip), vehicle: other 91 % of control | dose: 45.0 mg/kg/injection, schedule: Q01DX015 (ip), vehicle: saline 96 % of control and 109 % of control | dose: 45.0 mg/kg/injection, schedule: Q## X015 (ip), vehicle: saline 94 % of control | [1] 95 % of control and 100 % of control and 103 % of control | [2] 97 % of control and 100 % of control and 103 % of control | [3] 101 % of control | [4] 97 % of control and 101 % of control and 114 % of control | dose: 800.0 mg/kg/injection, schedule: Q01DX001 (ip), vehicle: saline 100 % of control

CS(=O)(=O)OCC1CCC(COS(C)(=O)=O)CC1 (stereo unspecified)
inactive: [5] 103 % of control | [6] 100 % of control | [7] 102 % of control

O=c1[nH]nc(-c2ccc3c(c2)Cc2ccccc2-3)c2ccccc12
inactive: [8] 100 % of control | [9] 94 % of control | [10] 97 % of control

Oc1ccc(Br)cc1/C=N/NC(=S)Nc1cccc2cccnc12
inactive: [3] 94 % of control | [4] 96 % of control

Cc1ccc(S(=O)(=O)N(CCCc2c(Cl)nc(N)nc2Cc2ccccc2)c2ccccc2)cc1
inactive: dose: 100.0 mg/kg/injection, schedule: Q04DX003 (ip), vehicle: gum acacia 97 % of control | dose: 200.0 mg/kg/injection, schedule: Q04DX003 (ip), vehicle: gum acacia 92 % of control | dose: 400.0 mg/kg/injection, schedule: Q04DX003 (ip), vehicle: gum acacia 94 % of control

NC(=O)c1ccc(O)cc1
inactive: [8] 92 % of control | [9] 92 % of control | [10] 89 % of control

CC(O)CN(Cc1c(O)ccc2ccccc12)CC(C)OS(C)(=O)=O (stereo unspecified)
inactive: [2] 97 % of control | [3] 93 % of control | [4] 95 % of control

ClCCCN1Cc2ccccc2CCc2ccccc2C1
inactive: [5] 102 % of control | [6] 100 % of control | [7] 107 % of control

Cc1nccc(=O)[nH]1
inactive: [11] 99 % of control | dose: 100.0 mg/kg/injection, schedule: Q04DX003 (ip), vehicle: saline 106 % of control | [12] 99 % of control | dose: 200.0 mg/kg/injection, schedule: Q04DX003 (ip), vehicle: saline 106 % of control | dose: 400.0 mg/kg/injection, schedule: Q04DX003 (ip), vehicle: saline 92 % of control

COC1OC(COS(C)(=O)=O)C(O)C(O)C1OS(C)(=O)=O (stereo unspecified)
inactive: [13] 109 % of control | [5] 106 % of control | [14] 95 % of control | [6] 102 % of control | [15] 111 % of control | [7] 102 % of control

CC(=O)OC1CC23CCC(=O)C2(CC3)C1 (stereo unspecified)
inactive: [16] 99 % of control | [17] 111 % of control | [18] 99 % of control

CCN(CC)c1cc(Cl)c(C=O)cc1[N+](=O)[O-]
inactive: [13] 100 % of control | [5] 94 % of control | [14] 107 % of control | [6] 96 % of control | [15] 102 % of control | [7] 102 % of control

COCCNC(=O)NS(=O)(=O)c1ccc(C)cc1
inactive: [19] 98 % of control | [20] 98 % of control | [21] 96 % of control

COc1cc(C=O)cc(O)c1O
inactive: dose: 62.5 mg/kg/injection, schedule: Q01DX Z (ip), vehicle: saline 96 % of control | dose: 500.0 mg/kg/injection, schedule: Q01DX Z (ip), vehicle: saline 124 % of control

CC12CCCCC1=CC(O)CC2 (stereo unspecified)
inactive: [22] 98 % of control | [23] 91 % of control | [24] 94 % of control

CCCCNC(=S)SCCC(=O)O
inactive: [16] 100 % of control | [17] 104 % of control | [18] 102 % of control

Cc1ccc(S(=O)(=O)OCC(CO)(COS(=O)(=O)c2ccc(C)cc2)[N+](=O)[O-])cc1
inactive: dose: 50.0 mg/kg/injection, schedule: Q01DX009 (ip), vehicle: saline 104 % of control | [11] 94 % of control | [5] 97 % of control | [12] 96 % of control | [6] 105 % of control

CCOP(=O)(OCC)C(CC=C(C)C)C(C)=O (stereo unspecified)
inactive: [22] 100 % of control | [23] 94 % of control | [24] 88 % of control

CCCCC(CCCC)c1cc[n+](CC(=O)c2ccccc2)cc1
inactive: dose: 12.5 mg/kg/injection, schedule: Q01DX001 (ip), vehicle: saline 106 % of control | [1] 97 % of control

O=Cc1ccc(OC(=O)Nc2ccccc2)cc1
inactive: [23] 92 % of control | [19] 105 % of control | [24] 87 % of control | [20] 94 % of control | [21] 93 % of control

CCCC(Sc1ncnc2nc[nH]c12)C(=O)O (stereo unspecified)
inactive: [8] 95 % of control | [9] 98 % of control | [10] 103 % of control

CCOC(=O)COc1c(C(=O)OC)cc([N+](=O)[O-])cc1[N+](=O)[O-]
inactive: [16] 104 % of control | [17] 97 % of control | [18] 90 % of control

CC(=O)Nc1ccc(C=Nc2c(N)n(C)c(=O)n(C)c2=O)cc1
inactive: dose: 50.0 mg/kg/injection, schedule: Q01DX001 (ip), vehicle: carboxymethylcellulose (CMC) 94 % of control | [8] 96 % of control | [9] 94 % of control | [10] 90 % of control
